Experimental data: patent US7674826B2, “Use of a nutraceutical compositions in animal feed” (DSM IP Assets B.V., priority 2006, dated 2010)

Tests used:
growing-fattening pig [1] = assay: Bone mineralization: ash content of dried metacarpal bone after incineration, after long-term feeding; assay type: in vivo; settings: for Mineralization (% of ash in DM), right metacarpals: mean ± SD of 32 measurements
Protocol: The term “bone mineralization” as used herein denotes the percentage of ash after incineration of the bone compared to the dried bone matter (DM). Dry matter is defined as the weight of the bone sample after 24 hour in a drying oven compared to the initial weight of the sample.
(§1) Environment humidity percentage throughout the experiment was 50%. […] Both diets were in mash form.
(§2) All the diets were given in a mash form.
(§3) At the end of the observation all the animals were slaughtered after electronarcosis for the determination of the bone resistance and mineralization. The collected bones were the right internal and external metacarpal. Samples were prepared from each of the collected bones immediately after slaughter. After careful removal of the soft tissue, a diaphysis section was obtained by sawing each bone. The obtained sections of about 3.5-cm long were immediately subjected to compression in order to determine the force in Newton necessary to break them (maximal-breaking force at the fracture point). The measurements were performed with a LR10K compression machine, using a XLC/10K/A1 force captor and a compression device TH23-196/AL (Lloyd Instruments, Fareham, UK). The broken bones were then dried in a drying oven at 105° C. during 24 hours and the dry matter (DM) was used for the determination of ash content, which was measured after 48 h incineration at 550° C. in a muffle furnace.
(§4) Statistical treatment of the results involved the calculation of the mean and of the standard deviation as well as a two-factor hierarchical analysis of variance. The mathematical model was: Yijk=μ+Ai+Bij+Zijk, where μ is the mean, Ai is the diet effect, Bij is the combined effect of the diet and animal or pen and Zijk is the residual term. The analysis of variance was followed by a Duncan multiple range test when a significant Ai effect without Bij effect was observed (Statistical methods, 8th edition, Iowa University Press, Ames, Snedecor and Cochran, 1989). These calculations were performed using the Statistical Analysis System (SAS, 1990).

pigs = settings: diets with 0.5% or 1% benzoic acid, 32 + 91 days; statement covers all animals
Protocol: Room temperature was initially 27° C. and was lowered weekly by about 2° C. until 21-22° C.

growing-fattening pig [2] = assay: Bone resistance: maximal breaking force of metacarpal diaphysis sections under compression, after long-term feeding; assay type: in vivo; settings: for Resistance (Newton at the breaking point), right metacarpals: mean ± SD
Excerpt: The term “bone resistance” as used herein denotes the maximal force in measured in Newton (N) necessary to break the bone determined by a compression machine.
as §1, §2, §3, §4

[3] = group B2: 0% 32 days, then 1% benzoic acid 91 days
[4] = group C2: 0.5% 32 days, then 0.5% benzoic acid 91 days
[5] = group D2: 0.5% 32 days, then 1% benzoic acid 91 days

O=C(O)c1ccccc1 [benzoic acid]
Mineralization relative to controls (A2 = 100) (growing-fattening pig [1]; [3]): (102)
Mineralization (% of ash in DM), right metacarpals (growing-fattening pig [1]; [3]): 60.26 ± 1.31^(1)d % of ash in DM
Ash content of the bones versus controls (in words) (growing-fattening pig [1]; group C2 (0.5% benzoic acid throughout), P<0.07): numerically higher
Mineralization relative to controls (A2 = 100) (growing-fattening pig [1]; [4]): (102)
Mineralization (% of ash in DM), right metacarpals (growing-fattening pig [1]; [4]): 60.06 ± 1.33^(1)cd* % of ash in DM
Mineralization relative to controls (A2 = 100) (growing-fattening pig [1]; [5]): (102)
Mineralization (% of ash in DM), right metacarpals (growing-fattening pig [1]; [5]): 60.14 ± 1.09^(1)d % of ash in DM
Ash content of the bones versus controls (in words) (growing-fattening pig [1]; groups B2 and D2 (1% benzoic acid during 91 days)): significantly higher
Natural mortality during the experiment (pigs): no natural mortality was observed
Symptoms of illness during the experiment (pigs): did not present any symptoms of illness
Bone resistance versus controls (in words) (growing-fattening pig [2]; all the supplemented groups (B2, C2, D2)): significantly increased
Resistance (Newton at the breaking point), right metacarpals (growing-fattening pig [2]; group B2: 0% benzoic acid in diet 32 days, then 1% for 91 days): 625 ± 163^(2)bd Newton
Resistance (Newton at the breaking point), right metacarpals (growing-fattening pig [2]; group C2: 0.5% benzoic acid in diet 32 days, then 0.5% for 91 days): 621 ± 172^(2)d Newton
Resistance (Newton at the breaking point), right metacarpals (growing-fattening pig [2]; group D2: 0.5% benzoic acid in diet 32 days, then 1% for 91 days): 597 ± 192^(2)d Newton
